This experiment relates to HDL in human plasma. The experiment can be described thus: pre-beta HDL ELISA assay: remodeling HDL in human plasma in vitro. In kind it is biochemical. To be noted: for Pre-beta HDL generated (normalized level): pre-beta HDL ELISA. How it is done: First, various cyclic peptides, including the majority of compounds shown in FIG. 2, were assessed for activities for remodeling HDL in human plasma in vitro. Unlike western blot which was used to generate data shown in FIG. 2, here a pre-beta HDL ELISA assay was used to measure pre-beta HDL levels. Results from the assay are shown in Table 1, which lists the peptides in the order of their activities in remodeling HDL.
In general terms: In an ELISA, binding on a coated surface is turned into a signal by an enzyme label.

Non-standard residues stand in square brackets, D forms with d. 1Nal = N[C@@H](Cc1cccc2ccccc12)C(=O)O; 2Nal = N[C@@H](Cc1ccc2ccccc2c1)C(=O)O; 4Pal = N[C@@H](Cc1ccncc1)C(=O)O; d3Pal = N[C@H](Cc1cccnc1)C(=O)O; Aoc(2) = CCCCCC[C@H](N)C(=O)O; Orn = NCCC[C@H](N)C(=O)O; Dap = NC[C@H](N)C(=O)O

Experimental findings from patent US10092620B2, “Uses of cyclic peptides for treating and preventing atherosclerosis” (THE SCRIPPS RESEARCH INSTITUTE, priority 2013, dated 2018) are described below.

Take “22 (cyclo([dW][Aoc(2)][dW]S[dE]Q[dS][Orn]); SMILES CCCCCC[C@@H]1NC(=O)[C@@H](Cc2c[nH]c3ccccc23)NC(=O)[C@H](CCCN)NC(=O)[C@@H](CO)NC(=O)[C@H](CCC(N)=O)NC(=O)[C@@H](CCC(=O)O)NC(=O)[C@H](CO)NC(=O)[C@@H](Cc2c[nH]c3ccccc23)NC1=O) [compound 22]”: the “Pre-beta HDL generated (normalized level)” value was 0.13. On the same count and under the same terms, with “55 (cyclo(L[dW]L[dW]L[dS]E[dK]); SMILES CC(C)C[C@@H]1NC(=O)[C@@H](Cc2c[nH]c3ccccc23)NC(=O)[C@H](CC(C)C)NC(=O)[C@@H](Cc2c[nH]c3ccccc23)NC(=O)[C@H](CC(C)C)NC(=O)[C@@H](CCCCN)NC(=O)[C@H](CCC(=O)O)NC(=O)[C@@H](CO)NC1=O) [compound 55]” the figure was 0.35. Still for that read-out and setting: the same measure for “15 (cyclo(Y[dL]W[dY]K[dH]A[dE]); SMILES CC(C)C[C@H]1NC(=O)[C@H](Cc2ccc(O)cc2)NC(=O)[C@@H](CCC(=O)O)NC(=O)[C@H](C)NC(=O)[C@@H](Cc2c[nH]cn2)NC(=O)[C@H](CCCCN)NC(=O)[C@@H](Cc2ccc(O)cc2)NC(=O)[C@H](Cc2c[nH]c3ccccc23)NC1=O) [compound 15]”: 0.51; for “74 (cyclo([dF]F[dY]F[dK]K); SMILES NCCCC[C@@H]1NC(=O)[C@@H](CCCCN)NC(=O)[C@H](Cc2ccccc2)NC(=O)[C@@H](Cc2ccc(O)cc2)NC(=O)[C@H](Cc2ccccc2)NC(=O)[C@@H](Cc2ccccc2)NC1=O) [compound 74]”: 0.04; for “17 (cyclo(Y[dW]D[dS]K[dH]); SMILES NCCCC[C@@H]1NC(=O)[C@@H](CO)NC(=O)[C@H](CC(=O)O)NC(=O)[C@@H](Cc2c[nH]c3ccccc23)NC(=O)[C@H](Cc2ccc(O)cc2)NC(=O)[C@@H](Cc2c[nH]cn2)NC1=O) [compound 17]”: 0.08. As to “59 (cyclo([dW]Y[dW]Y[dS]R[dS][dS]); SMILES N=C(N)NCCC[C@@H]1NC(=O)[C@@H](CO)NC(=O)[C@H](Cc2ccc(O)cc2)NC(=O)[C@@H](Cc2c[nH]c3ccccc23)NC(=O)[C@H](Cc2ccc(O)cc2)NC(=O)[C@@H](Cc2c[nH]c3ccccc23)NC(=O)[C@@H](CO)NC(=O)[C@@H](CO)NC1=O) [compound 59]”, the “Pre-beta HDL generated (normalized level)” value was found to be 0.24. With “60 (cyclo([dW][2Nal][dK]S[dK]S[dK]S); ring closure inferred) [compound 60]”, the “Pre-beta HDL generated (normalized level)” value came to 0.20. The same measure, in the same setting: the same measure for “10 (cyclo([dW]L[dW]K[dD]Q[dD]K); SMILES CC(C)C[C@@H]1NC(=O)[C@@H](Cc2c[nH]c3ccccc23)NC(=O)[C@H](CCCCN)NC(=O)[C@@H](CC(=O)O)NC(=O)[C@H](CCC(N)=O)NC(=O)[C@@H](CC(=O)O)NC(=O)[C@H](CCCCN)NC(=O)[C@@H](Cc2c[nH]c3ccccc23)NC1=O) [compound 10]”: 0.12. On the same count and under the same terms, the same measure for “70 (cyclo(L[dL]W[dL]K[dK]K[dK]); SMILES CC(C)C[C@@H]1NC(=O)[C@@H](CCCCN)NC(=O)[C@H](CCCCN)NC(=O)[C@@H](CCCCN)NC(=O)[C@H](CCCCN)NC(=O)[C@@H](CC(C)C)NC(=O)[C@H](Cc2c[nH]c3ccccc23)NC(=O)[C@@H](CC(C)C)NC1=O) [compound 70]”: 0.06.

In the case of “c[fWwYtRhS] (cyclo([dF]W[dW]Y[dT]R[dH]S); SMILES C[C@H](O)[C@H]1NC(=O)[C@H](Cc2ccc(O)cc2)NC(=O)[C@@H](Cc2c[nH]c3ccccc23)NC(=O)[C@H](Cc2c[nH]c3ccccc23)NC(=O)[C@@H](Cc2ccccc2)NC(=O)[C@H](CO)NC(=O)[C@@H](Cc2c[nH]cn2)NC(=O)[C@H](CCCNC(=N)N)NC1=O) [SEQ ID NO:51]”, the “activity in generating pre-beta HDL (in words)” value is given as “excellent activities in promoting generation of pre-beta HDL”.

As for “58 (cyclo([d3Pal]L[dW]K[dS]K[dS]K); ring closure inferred) [compound 58]”, the “Pre-beta HDL generated (normalized level)” value is listed as 0.27.

Take “40 (cyclo([dW]L[dW]S[dE]Q[dH]K); SMILES CC(C)C[C@@H]1NC(=O)[C@@H](Cc2c[nH]c3ccccc23)NC(=O)[C@H](CCCCN)NC(=O)[C@@H](Cc2c[nH]cn2)NC(=O)[C@H](CCC(N)=O)NC(=O)[C@@H](CCC(=O)O)NC(=O)[C@H](CO)NC(=O)[C@@H](Cc2c[nH]c3ccccc23)NC1=O) [compound 40]”: the “Pre-beta HDL generated (normalized level)” value is on record as 0.40. Still for that read-out and setting: with “75 (cyclo([dW]L[dW][Dap][dE]Q[dE]K); ring closure inferred) [compound 75]” the figure was 0.03.

On to “30 (cyclo([dW]L[dW]S[dE]Q[dS]K)) [compound 30]”, for which the “Pre-beta HDL generated (normalized level)” value was 0.06.

“68 (cyclo([dW]W[dF]Y[dK]H[dS]S); SMILES NCCCC[C@H]1NC(=O)[C@H](Cc2ccc(O)cc2)NC(=O)[C@@H](Cc2ccccc2)NC(=O)[C@H](Cc2c[nH]c3ccccc23)NC(=O)[C@@H](Cc2c[nH]c3ccccc23)NC(=O)[C@H](CO)NC(=O)[C@@H](CO)NC(=O)[C@H](Cc2c[nH]cn2)NC1=O) [compound 68]”: the “Pre-beta HDL generated (normalized level)” value was 0.07. Take “c[fWwYqHhQ] (cyclo([dF]W[dW]Y[dQ]H[dH]Q); SMILES NC(=O)CC[C@@H]1NC(=O)[C@@H](Cc2c[nH]cn2)NC(=O)[C@H](Cc2c[nH]cn2)NC(=O)[C@@H](CCC(N)=O)NC(=O)[C@H](Cc2ccc(O)cc2)NC(=O)[C@@H](Cc2c[nH]c3ccccc23)NC(=O)[C@H](Cc2c[nH]c3ccccc23)NC(=O)[C@@H](Cc2ccccc2)NC1=O) [SEQ ID NO:5]”: the “activity in generating pre-beta HDL (in words)” value is “excellent activities in promoting generation of pre-beta HDL”. In the case of “w(Nal)wReQeR (cyclo([dW][1Nal][dW]R[dE]Q[dE]R); ring closure inferred) [SEQ ID NO:28]”, the “Pre-beta HDL generated (normalized level)” value stood at 0.35. Still for that read-out and setting: with “78 (cyclo([dY]L[dW]K[dK]K); SMILES CC(C)C[C@@H]1NC(=O)[C@@H](Cc2ccc(O)cc2)NC(=O)[C@H](CCCCN)NC(=O)[C@@H](CCCCN)NC(=O)[C@H](CCCCN)NC(=O)[C@@H](Cc2c[nH]c3ccccc23)NC1=O) [compound 78]” the figure was 0.01; with “48 (cyclo([dW]F[dY]Y[dH][Orn][dR]S); SMILES N=C(N)NCCC[C@H]1NC(=O)[C@H](CCCN)NC(=O)[C@@H](Cc2c[nH]cn2)NC(=O)[C@H](Cc2ccc(O)cc2)NC(=O)[C@@H](Cc2ccc(O)cc2)NC(=O)[C@H](Cc2ccccc2)NC(=O)[C@@H](Cc2c[nH]c3ccccc23)NC(=O)[C@H](CO)NC1=O) [compound 48]”, 0.70.

Take “8 (cyclo([dW]L[dW]K[dD]N[dD]K); SMILES CC(C)C[C@@H]1NC(=O)[C@@H](Cc2c[nH]c3ccccc23)NC(=O)[C@H](CCCCN)NC(=O)[C@@H](CC(=O)O)NC(=O)[C@H](CC(N)=O)NC(=O)[C@@H](CC(=O)O)NC(=O)[C@H](CCCCN)NC(=O)[C@@H](Cc2c[nH]c3ccccc23)NC1=O) [compound 8]”: the “Pre-beta HDL generated (normalized level)” value was determined as 0.26.

Consider “80 (cyclo([dW]L[dW]R[dD]Q[dE]K); SMILES CC(C)C[C@@H]1NC(=O)[C@@H](Cc2c[nH]c3ccccc23)NC(=O)[C@H](CCCCN)NC(=O)[C@@H](CCC(=O)O)NC(=O)[C@H](CCC(N)=O)NC(=O)[C@@H](CC(=O)O)NC(=O)[C@H](CCCNC(=N)N)NC(=O)[C@@H](Cc2c[nH]c3ccccc23)NC1=O) [compound 80]”, for which the “Pre-beta HDL generated (normalized level)” value worked out at 0.01. Same read-out and setting: with “50 (cyclo(WIW[dR]E[dQ]E[dR]); SMILES CC[C@H](C)[C@@H]1NC(=O)[C@H](Cc2c[nH]c3ccccc23)NC(=O)[C@@H](CCCNC(=N)N)NC(=O)[C@H](CCC(=O)O)NC(=O)[C@@H](CCC(N)=O)NC(=O)[C@H](CCC(=O)O)NC(=O)[C@@H](CCCNC(=N)N)NC(=O)[C@H](Cc2c[nH]c3ccccc23)NC1=O) [compound 50]” the figure was 0.54; with “57 (cyclo([dW]L[dW]K[dS]K); SMILES CC(C)C[C@@H]1NC(=O)[C@@H](Cc2c[nH]c3ccccc23)NC(=O)[C@H](CCCCN)NC(=O)[C@@H](CO)NC(=O)[C@H](CCCCN)NC(=O)[C@@H](Cc2c[nH]c3ccccc23)NC1=O) [compound 57]”, 0.30. The same measure, in the same setting: the same measure for “25 (cyclo([dY]W[dY]K[dS]H[dA]E); SMILES C[C@H]1NC(=O)[C@H](Cc2c[nH]cn2)NC(=O)[C@@H](CO)NC(=O)[C@H](CCCCN)NC(=O)[C@@H](Cc2ccc(O)cc2)NC(=O)[C@H](Cc2c[nH]c3ccccc23)NC(=O)[C@@H](Cc2ccc(O)cc2)NC(=O)[C@H](CCC(=O)O)NC1=O) [compound 25]”: 0.19; for “64 (cyclo([dW]F[dW]Y[dR]S[dS]H); SMILES N=C(N)NCCC[C@H]1NC(=O)[C@H](Cc2ccc(O)cc2)NC(=O)[C@@H](Cc2c[nH]c3ccccc23)NC(=O)[C@H](Cc2ccccc2)NC(=O)[C@@H](Cc2c[nH]c3ccccc23)NC(=O)[C@H](Cc2c[nH]cn2)NC(=O)[C@@H](CO)NC(=O)[C@H](CO)NC1=O) [compound 64]”: 0.16. On the same count and under the same terms, with “49 (cyclo([4Pal][dW]L[dL]H[dS]K[dK]); not fully specified; printed as c[(PA)wLlHsKk]) [compound 49]” the figure was 0.67. On to “73 (cyclo(L[dW]L[dH]K[dK]E[dH]); SMILES CC(C)C[C@@H]1NC(=O)[C@@H](Cc2c[nH]c3ccccc23)NC(=O)[C@H](CC(C)C)NC(=O)[C@@H](Cc2c[nH]cn2)NC(=O)[C@H](CCC(=O)O)NC(=O)[C@@H](CCCCN)NC(=O)[C@H](CCCCN)NC(=O)[C@@H](Cc2c[nH]cn2)NC1=O) [compound 73]”, for which the “Pre-beta HDL generated (normalized level)” value came out at 0.04. Regarding “47 (cyclo(WIW[dW][dK][dH][dK][dH]); SMILES CC[C@H](C)[C@@H]1NC(=O)[C@H](Cc2c[nH]c3ccccc23)NC(=O)[C@@H](Cc2c[nH]cn2)NC(=O)[C@@H](CCCCN)NC(=O)[C@@H](Cc2c[nH]cn2)NC(=O)[C@@H](CCCCN)NC(=O)[C@@H](Cc2c[nH]c3ccccc23)NC(=O)[C@H](Cc2c[nH]c3ccccc23)NC1=O) [compound 47]”, the “Pre-beta HDL generated (normalized level)” value is 0.79.
